Measured values taken from patent EP0342577B1, “Use of dihydropyridine derivatives for the prophylaxis or treatment of cerebral circulation disorders” (YOSHITOMI PHARMACEUTICAL INDUSTRIES, LTD., priority 1988, dated 1989).

Key:
[1] = test system: Cerebral blood flow amount; assay: Duration time of cerebral hyperkinemic action: cerebral blood flow with the lapse of time; format: in vivo; set-up: unit not given here; settings: dogs, intravenous, 30 µg/kg body weight
Description: (§1) Various dihydropyridine derivatives were intravenously administered to dogs (weighing 9 - 16 kg, 4 animals per group) at a dose of 1 - 100 µg/kg body weight. At the lapse of 1, 3, 5, 10, 30, 60, 90 and 120 minutes after the intravenous administration, the coronary blood flow amount and cerebral blood flow amount were measured, and the rates of increase in the blood flow amount were estimated.
(§2) Cerebral blood flow was measured by equipping the left vertebral artery with the probe of the electromagnetic flow meter, and recorded continuously on the polygraph.
By examining the rate of increase in cerebral blood flow by various dihydropyridine derivatives with the lapse of time, the duration of cerebral hyperkinemic action was studied.

[2] = test system: both common carotid arteries-ligated rats; assay: Inhibitory effect on symptoms of both common carotid arteries-ligated rats; format: in vivo, Spontaneously hypertensive rats (SHR·SR); settings: SHR·SR rats, oral, dose 0.1 mg/kg, given one hour before ligation; neural symptom score 0 (normal) to 4 (death) two hours after skin suture; control (None) 2.8
Description: Spontaneously hypertensive rats (SHR·SR; Japan Charles River Co.) were used for the experiment (9-10 rats per group).
The compound 2-2 of the present invention was orally administered forsively to the rats at a dose of 10 ml/kg. To the control group was administered 0.3% Tween® 80 solely at a dose of 10 ml/kg. One hour later, cervical part was incised and both common carotid arteries were ligated with a suture thread almost simultaneously. Two hours after skin suture, observation was made for their neural symptom and/or death. The results are expressed in five-rank scores below.

[3] = test system: Coronary blood flow amount; assay: Selectivity in cerebral hyperkinemic action: coronary blood flow amount (electromagnetic flow meter, left coronary artery circumflex ramus); format: in vivo; settings: dogs, intravenous; for Coronary blood flow amount ED200: dose at which the rate of increase is 200%
Description: (§3) The selectivity in cerebral hyperkinemic action was studied by examining the rates of increase in coronary blood flow amount and cerebral blood flow amount as to various dihydropyridine derivatives.
as §1
Coronary blood flow was measured by equipping the left coronary artery circumflex ramus with the probe of the electromagnetic flow meter, and recorded on the polygraph.
(§4) The ED200 (µg/kg body weight) indicates the dose at which the rate of increase is 200%.

[4] = test system: Cerebral blood flow amount; assay: Selectivity in cerebral hyperkinemic action: cerebral blood flow amount (electromagnetic flow meter, left vertebral artery); format: in vivo; settings: dogs, intravenous; for Cerebral blood flow amount ED200: dose at which the rate of increase is 200%
Description: as §3, §1, §2, §4

SMILES | Rate of increase in cerebral blood flow amount ([1]; 5 min after administration) | Rate of increase in cerebral blood flow amount ([1]; 10 min after administration) | Rate of increase in cerebral blood flow amount ([1]; 30 min after administration) | Rate of increase in cerebral blood flow amount ([1]; 60 min after administration) | Rate of increase in cerebral blood flow amount ([1]; 120 min after administration) | Average score [2] | Coronary blood flow amount Increase rate (%) ([3]; dose 10 µg/kg body weight) | Coronary blood flow amount Increase rate (%) ([3]; dose 30 µg/kg body weight) | Coronary blood flow amount Increase rate (%) ([3]; dose 100 µg/kg body weight) | Coronary blood flow amount ED200 [3] [µg/kg body weight] | Cerebral blood flow amount Increase rate (%) ([4]; dose 10 µg/kg body weight) | Cerebral blood flow amount Increase rate (%) ([4]; dose 30 µg/kg body weight) | Cerebral blood flow amount Increase rate (%) ([4]; dose 100 µg/kg body weight) | Cerebral blood flow amount ED200 [4] [µg/kg body weight] | Coronary blood flow amount Increase rate (%) ([3]; dose 1 µg/kg body weight) | Coronary blood flow amount Increase rate (%) ([3]; dose 3 µg/kg body weight) | Cerebral blood flow amount Increase rate (%) ([4]; dose 1 µg/kg body weight) | Cerebral blood flow amount Increase rate (%) ([4]; dose 3 µg/kg body weight)
COC(=O)C1=C(C)NC(C)=C(C(=O)OCCc2ccc(N3CCN(C(c4ccccc4)c4ccccc4)CC3)cc2)C1c1cccc([N+](=O)[O-])c1 (stereo not drawn) [Compound 2-2, 2-[p-(4-Benzhydrylpiperazino)phenyl]ethyl methyl 2,6-dimethyl-4-(3-nitrophenyl)-1,4-dihydropyridine-3,5-dicarboxylate] | 137 | 170 | 285 | 300 | 237 | 1.7 | 125 | 174 | 207 | 75 | 197 | 301 | 433 | 11 | – | – | – | –
COCCOC(=O)C1=C(C)NC(C)=C(C(=O)OC(C)C)C1c1cccc([N+](=O)[O-])c1 (stereo not drawn) [Nimodipine, reference compound] | 163 | 152 | 129 | 113 | – | – | 191 | – | – | 16 | 196 | – | – | 13 | 125 | 141 | 146 | 167
COC(=O)C1=C(C)NC(C)=C(C(=O)OCCN(C)Cc2ccccc2)C1c1cccc([N+](=O)[O-])c1 (stereo not drawn) [Nicardipine, reference compound] | 237 | 189 | 129 | 109 | – | – | 206 | 240 | – | 9.7 | 197 | 238 | – | 9.7 | – | 154 | – | 165
COC(=O)C1=C(C)NC(C)=C(C(=O)OCCc2ccc(N3CCN(C(c4ccccc4)c4ccccc4)CC3)cc2)C1c1cc(C#N)ccn1 (stereo not drawn) [Compound 1-2, 2-[p-(4-Benzhydrylpiperazino)phenyl]ethyl methyl 2,6-dimethyl-4-(4-cyano-2-pyridyl)-1,4-dihydropyridine-3,5-dicarboxylate] | 183 | 222 | 190 | 151 | 132 | – | 131 | 156 | 246 | 48 | 186 | 223 | 385 | 15 | – | – | – | –
